Entries after “also recorded” stand apart in the source; their conditions may differ.
Legend:
C57BL/6J DIO mice = experiment: DIO mice injected IP for 14 days (hepatic steatosis); format: in vivo; conditions: for serum free fatty acids (FFA): after glucose challenge; for hepatic stored fat by Oil Red O staining: liver sections; for hepatic stored fat by Oil Red O staining / alkaline phosphatase (ALP) / epididymal fat pad weight / hepatic triglyceride content / liver weight / hepatic steatosis: 200 mg/kg; for alkaline phosphatase (ALP) / epididymal fat pad weight / hepatic triglyceride content / liver weight: vs DMSO; for hepatic steatosis: two weeks; for toxicity / general condition: mice, IP, up to the highest dose administered
Experimental: Compounds were injected IP into diet-induced obese mice at a dose of 200 mg/kg bid for two weeks. At that point, mice were sacrificed and organs were harvested for analysis. To test the hypothesis that HNF4a controls hepatic fat storage, N-trans-caffeoyltyramine was administered to C57BL/6J DIO mice maintained on a 60% fat calorie diet. Based upon PK studies with N-trans-caffeoyltyramine, IP injection was chosen for two week for these proof of concept studies. […] It was observed that N-trans-caffeoyltyramine was stimulating lipophagy (FIG. 1A).
Slides containing frozen liver tissue sections from mice were air dried for 10-20 min followed by rehydration in distilled water. Sections were immersed in absolute propylene glycol (Cat #151957, MP Biomedicals, LLC, USA) for 2 min followed by 0.5% in oil red O solution (Cat #K043, Poly Scientific R&D, USA) for 2 h. Slides were then differentiated in 85% propylene glycol solution, washed with dH2O for 2 h, and mounted using glycerin jelly mounting medium. All slides were scanned at a magnification of 20× using the Aperio Scanscope FL system (Aperio Technologies Inc., Vista, Calif., USA). The liver area stained with oil red O was measured using image J software as described, with some modifications. Oil red O-stained liver images were opened in Image J software. Using the Analyze>Set Scale command, the scale bar of the images was set to 200 um. RGB images were then converted into gray scale images using the Image>Type>RGB Stack command and were split into red, blue and green channels. Using the Image>Adjust>Threshold command, the threshold was manually set to highlight the oil red O-stained lipid droplets in the green channel. The same threshold was used for all the images in all treatment groups and the % oil red O-stained area was obtained using the Analyze→Measure tool command. Fold change was calculated by normalizing the values to images from mice fed normal chow.
12-week-old C57BL/6 J DIO male mice (cat #380050) were purchased from Jackson Laboratory and were fed with high fat diet containing 60 kcal % fat (Research Diets cat #D12492). Mice were maintained in a 12-h light/day cycle. After 2 weeks of acclimation, mice with similar body weights were randomly assigned to treatment or control groups.
For dose response experiments, mice were injected intraperitoneally with 10% DMSO as vehicle control or 4 different doses of NCT (30, 60, 120 and 240 mg/kg of body weight) dissolved in 10% DMSO. Mice received 2 doses per day with a 5 h interval between injections for 3 days. To test the effect of NCT (Sundia MediTech Company, Ltd., Custom synthesis), 200 mg/kg was injected IP bid for 14 days. On day 15, mice received a final dose of NCT followed by IP injection with 3 g/kg dextrose. One h later, blood samples were collected and mice were euthanized using pentobarbital. Total mouse, liver and epididymal fat pad weights were measured. Dissected liver samples were washed in cold PBS, cut into small pieces and distributed for analyses. For RNA isolation and ELISA, liver samples were snap frozen using liquid nitrogen and stored at −80° C. For histomorphometry and immunofluorescence analysis, liver samples were fixed in 4% of cold PFA and processed for histology. All animal experiments were approved by the Institutional Animal Care and Use Committee (IACUC) of the Sanford Burnham Prebys Medical Discovery Institute in accordance with national regulations.
The serum FFA level was measured using the Free Fatty Acid Quantification Colorimetric/Fluorometric Kit (Cat #K612, BioVision, USA). Fold change was calculated by normalizing to values from mice fed normal chow.
Serum and liver TG level was measured using the Triglyceride calorimetric Assay Kit (Cat #10010303, Cayman Chemicals, USA). Fold change was calculated by normalizing the values from normal chow mice. […]

CYP26A1 mRNA = experiment: CYP26a1 mRNA in primary human hepatocytes; format: cell-based; conditions: high fat media, 5, 15, 40 µM, Day 4 to Day 10
Experimental: (§1) Experiments with primary human hepatocytes were performed by CN-Bio (Cambridge, UK). Primary human hepatocytes (PHHs), human Kupffer cells (HKs) and human stellate cells (HSCs) were seeded onto CN-Bio's PhysioMimix LC12 MPS culture plates at 6×10^5 cells for PHHs and 6×10^4 cells for HKs and HSCs in 1.6 ml of CN-Bio's HEP-lean media with 5% FCS. Throughout the experiment the cells were maintained at a flow rate of 1 μl/s. After 24 h (Day 1) of seeding, the media was changed to HEP-lean media and the cells were incubated until day 4 to allow the cells to form microtissues. At day 4 post seeding, media was changed to HEP-fat media and treated with DMSO or NCT (5, 15, 40 μM). Media was replaced on days 6 and 8. Cells were harvested on day 10 for RNA extraction. Data are presented as mean ±SEM of three or more samples as indicated. Statistical significance was assessed using Student's t-test, ANOVA or R^2 coefficient of correlation.

SPNS2 mRNA [1] = experiment: SPNS2 qPCR in mouse pancreas; format: in vivo
Experimental: Quantitative PCR (Q-PCR) from in vitro cell culture experiments used total RNA purified using RNeasy Kits (Qiagen). For liver tissue samples, total RNA was isolated using Trizol (Invitrogen) and prepared for RNAseq (mouse liver DMSO and NCT, N=3). cDNA was amplified using 3 μg of total RNA using qScript cDNA SuperMix (Quanta BioSciences, Beverly, Mass., USA). QPCR analysis was performed using SYBR® Select Master Mix (Applied Biosystems) and ABI 7900HT (Applied Biosystems, Thermo Fisher Scientific). The Ct values of mRNA expression were then normalized to the 18 s rRNA values and are expressed as fold change over samples from mice fed normal chow for in vivo experiments or DMSO controls for cell culture experiments.

SPNS2 mRNA [2] = experiment: SPNS2 mRNA in primary human hepatocytes; format: cell-based; conditions: high fat media, 5, 15, 40 µM, Day 4 to Day 10
Experimental: as §1

LC3B = experiment: anti-LC3B Western blot in T6PNE cells; format: cell-based, human; conditions: 10 μM
Experimental: Whole-cell extracts were prepared by incubation in RIPA buffer (Invitrogen) containing protease inhibitors (Calbiochem, San Diego, Calif.). Protein ([…]) was separated on 12% or 16% Tri-Glycine gels (Invitrogen) and transferred to Immobilon P membrane (0.2 μm pore, Millipore). After 1 h in phosphate-buffered saline-Tween (PBST) with 3% milk, membrane was incubated with antibodies to HNF4α (mouse, Novus, 1:1000), LC3B (rabbit, Novus, 1:500), p62 (SQSTM1, mouse, Santa Cruz, 1:1000) or β-actin (mouse, Santa Cruz, 1:2000), followed by secondary antibody conjugated to horseradish peroxidase (1:5000, Jackson Immune).

[3] = DIO mice, 200 mg/kg bid IP, 14 days
[4] = DIO mice, 200 mg/kg bid IP, 14 days, listed as N-trans-caffeoyltyramine

O=C(/C=C/c1ccc(O)c(O)c1)NCCc1ccc(O)cc1 [NCT, N-trans-caffeoyltyramine]
color of the liver (C57BL/6J DIO mice; [3]): shift in the color of the liver from yellow to red
other markers of liver function in the VetScan panel (C57BL/6J DIO mice; [3]): no change
serum free fatty acids (FFA) (C57BL/6J DIO mice; [3]): induced an increase in free fatty acids
serum free fatty acids (FFA) (C57BL/6J DIO mice; [4]): induced an increase in free fatty acids; also recorded: Serum FFA were increased
hepatic stored fat by Oil Red O staining (C57BL/6J DIO mice; [3]): decrease in stored fat by Oil Red O staining
hepatic stored fat by Oil Red O staining (C57BL/6J DIO mice; [4]): decrease in stored fat by Oil Red O staining; also recorded: significantly reduced the Oil Red O
alkaline phosphatase (ALP) (C57BL/6J DIO mice; [3]): decreased ALP; also recorded: decrease in ALP
epididymal fat pad weight (C57BL/6J DIO mice; [3]): increase in epididymal fat pad mass; also recorded: increased weight
hepatic triglyceride content (C57BL/6J DIO mice; [3]): reduction in the hepatic triglyceride content
liver weight (C57BL/6J DIO mice; [3]): weighed less than those of the control mice
alkaline phosphatase (ALP) (C57BL/6J DIO mice; [4]): ALP was decreased
epididymal fat pad weight (C57BL/6J DIO mice; [4]): increase in epididymal fat pad mass; also recorded: increase in epididymal fat pad weight
hepatic triglyceride content (C57BL/6J DIO mice; [4]): hepatic triglyceride content was decreased; also recorded: significantly reduced
liver weight (C57BL/6J DIO mice; [4]): weighed less than those of the control mice; also recorded: decreased liver weight
body weight gain (C57BL/6J DIO mice; DIO mice, 200 mg/kg bid IP, 14 days, vs control): gained weight to a similar degree
hepatic steatosis (C57BL/6J DIO mice; DIO mice, 200 mg/kg bid IP): reversed hepatic steatosis; also recorded: reversal of hepatic steatosis; also recorded: reduction of steatosis
hepatic steatosis (C57BL/6J DIO mice; DIO mice, 200 mg/kg bid IP, listed as N-trans-caffeoyltyramine): reverses hepatic steatosis
serum TG at week 1 (C57BL/6J DIO mice; DIO mice, 200 mg/kg bid IP, week 1): increased
serum TG at week 2 (C57BL/6J DIO mice; DIO mice, 200 mg/kg bid IP, week 2, end of the study): not at week 2
toxicity / general condition (C57BL/6J DIO mice): remained healthy and active; also recorded: unable to establish a maximum tolerated dose because of the lack of toxicity; also recorded: completely nontoxic at the highest dose administered
toxicity / general condition (C57BL/6J DIO mice; listed as N-trans-caffeoyltyramine): remained healthy and active
CYP26a1 mRNA (CYP26A1 mRNA): induced CYP26a1; also recorded: significantly induced
SPNS2 expression in mouse pancreas (SPNS2 mRNA [1]): induced SPNS2 expression
SPNS2 mRNA (SPNS2 mRNA [2]): did not induce a change in SPNS2 expression
LC3B-II to LC3B-I ratio (LC3B): induced increases
